Assay results as given in US20240139205A1, “MODULATORS OF ARALAR FOR TREATING NEUROLOGICAL DISORDERS” (Universite de Lausanne, priority 2020, published 2024).

How the values were obtained:
Cyfip^85.1/+ flies = assay: competition for food assay (total number of social events) in Cyfip haploinsufficient flies; type: in vivo, Drosophila; conditions: Cyfip^85.1/+ flies; Diazepam 50 μM in food, 1 day
Procedure: Experiments were performed with socially experienced, 3-7 days-old male flies. Groups of eight males from the same genotype were anesthetized 24 h prior to the assay and placed in vials with food. On the day of the assay, the males were transferred without anesthesia to an empty vial and were deprived of food for 90 minutes, after which they were exposed to a food droplet and given 2 minutes to acclimate to this disturbance. The flies were then observed simultaneously for an additional 2 minutes, and the total number of social events was scored. Monitored social events were i.e. approaches, lunges, tussles, wing threat and the initiation of courtship. Of note, one interaction involving two or more flies was counted as one social event in total (Zwarts (2011), PNAS 108, 17070-17075. The behavioral assays were conducted in a behavioral chamber (25° C., 60-70% humidity) between 8 a.m. and 11 a.m. Statistics were calculated using a one-way fixed effect ANOVA model, and Kruskal Wallis test in combination with Dunn's multiple comparison test.
Example 8. GABA augmentation fully normalizes the behavioral abnormalities of Cyfip^85.1/+ flies. GABA levels were augmented in Cyfip^85.1/+ flies in three distinct ways: flies were fed either GABA, DL-2,4-diaminobutyric acid (DABA) which is a GABA-transaminase inhibitor and/or a GABA reuptake inhibitor or the anticonvulsant valproic acid (VPA) which induces GABA release (Chateauvieux (2010), Journal of biomedicine & biotechnology 2010; Coghlan (2012), Neurosci Biobehav Rev 36, 2044-2055; Reynolds (2007), Current medicinal chemistry 14, 2799-2812). All compounds were purchased from Sigma-Aldrich and were used as described before (Kanellopoulos (2012), J Neurosci. 32(38):13111-24; Zwarts (2011), PNAS 108, 17070-17075). In brief, the drugs were dissolved as per the manufacturer's instructions and used at the following concentrations: GABA at 50 μM, DABA 100 μM, Valproic acid (VPA) at 1 mM and Diazepam at 50 μM. Compounds in solution were mixed with Formula 4-24® Instant Drosophila Medium (blue food) in water. Approximately 50-60 adult flies were placed in plastic vials containing 500 μl of each solution on top of an agar matrix and allowed to feed ad libitum before behaviour analysis. Vehicle treatment consisted of solvent added to blue food alone.
Example 16. Drug screening to identify compounds that ameliorate social behavior deficits in flies with Cyfip haploinsufficiency. Control (w1118) or CYFIP (Cyfip^85.1/+) flies were treated, i.e. fed, with various compounds from the Prestwick Chemical Library® as described in Examples 8 and 15. All compounds were used at a concentration of 50 μM. The total number of social interactions was analyzed in a competition for food assay at various time-points (1, 2 or 5 days) of treatment with the compound or vehicle controls as described in Example 2.

Cyfip1+/− mice = assay: three-chamber test (sociability and social novelty) in Cyfip1+/− mice; type: in vivo, mouse; conditions: for social preference deficit (sociability index, stranger 1 vs object): acute diazepam i.p. 0.2 mg/ml at 1% of bodyweight, 30 min prior to test
Procedure: Sociability and social novelty were evaluated using the three-chamber test previously described (Crawley (2007), Brain Pathology 17(4), 448-459). Briefly, the set-up consisted of a rectangular non-transparent Plexiglas box divided into three compartments, separated by two partitions (each compartment: 30×19×21 cm). These partitions contained a small passage in the middle (8×7 cm; that can be sealed with small guillotine doors), which allowed the mouse to transition between adjacent compartments. During the acclimation phase, mice were allowed to explore the empty central compartment for 5 min. At the start of the test, both sliding doors were closed and each of the outer compartments were equipped with a wired cage (10 cm diameter, 20 cm high), one containing an object (50 ml Falcon Tube or a glue stick) and the other containing a mouse (i.e. stranger 1). Holding cages were used to avoid inter-male fighting but allow visual and olfactory contact between mice. During the sociability phase, the guillotine doors were removed and mice could freely explore the entire set-up for 10 min. It is expected from healthy mice that more interest is shown towards another mouse compared to an object. After 10 min, mice were placed into an empty housing cage, and the holding cage containing the object was replaced by a holding cage containing a novel mouse (i.e. stranger 2). During the next phase (social memory), the stranger 1 mouse has become familiar and it is expected that healthy mice show more interest towards the stranger 2 mouse compared to the stranger 1 mouse. The guillotine doors were removed and mice were allowed to explore the set-up for another 10 min. The location of the stranger 1 and stranger 2 mice was counterbalanced between animals and the box was cleaned with 70% EtOH solution after each animal. All stranger mice used were of the same sex as the tested mouse and had never been in contact with the test mice. Mice were recorded with a camera and were tracked with Ethovision software (Noldus, Wageningen, The Netherlands). Time spent in close proximity (<2 cm) to the holding cages was recorded. Preference index was calculated as: Time stranger 1/(Time stranger 1+Time object) and Timestranger 2/(Timestranger 1+Timestranger 2) for sociability and social memory/social novelty, respectively.
Diazepam, a GABA-A positive modulator, was purchased from Roche (Basel, Switzerland) (diazepam already dissolved in saline at a concentration of 5 mg/ml). Diazepam was further diluted in saline and adjusted to the dose of 0.2 mg/ml. Mice were first tested in the three-chamber test in control conditions. 72 h afterwards, all mice were administered intraperitoneally with diazepam at 1% of bodyweight 30 min prior to re-testing. […]

WT mice = assay: three-chamber test (sociability) in WT mice; type: in vivo, mouse; conditions: acute diazepam i.p. 0.2 mg/ml at 1% of bodyweight, 30 min prior to test
Procedure: Sociability and social novelty were evaluated using the three-chamber test previously described (Crawley (2007), Brain Pathology 17(4), 448-459). Briefly, the set-up consisted of a rectangular non-transparent Plexiglas box divided into three compartments, separated by two partitions (each compartment: 30×19×21 cm). These partitions contained a small passage in the middle (8×7 cm; that can be sealed with small guillotine doors), which allowed the mouse to transition between adjacent compartments. During the acclimation phase, mice were allowed to explore the empty central compartment for 5 min. At the start of the test, both sliding doors were closed and each of the outer compartments were equipped with a wired cage (10 cm diameter, 20 cm high), one containing an object (50 ml Falcon Tube or a glue stick) and the other containing a mouse (i.e. stranger 1). Holding cages were used to avoid inter-male fighting but allow visual and olfactory contact between mice. […] Mice were recorded with a camera and were tracked with Ethovision software (Noldus, Wageningen, The Netherlands). Time spent in close proximity (<2 cm) to the holding cages was recorded. Preference index was calculated as: Time stranger 1/(Time stranger 1+Time object) and Timestranger 2/(Timestranger 1+Timestranger 2) for sociability and social memory/social novelty, respectively. […]

## CN1C(=O)CN=C(c2ccccc2)c2cc(Cl)ccc21 [diazepam]
Cyfip^85.1/+ flies
  social deficits (social events): restored the social deficits
Cyfip1+/− mice; acute diazepam i.p.
  increase in social preference after treatment (within-subject, control vs diazepam-treated): approximately 50%
Cyfip1+/− mice
  social preference deficit (sociability index, stranger 1 vs object): rescued the social preference deficit
Cyfip1+/− mice; listed as Diazepam
  social preference deficit (sociability index, stranger 1 vs object): restores deficits in social behavior
Cyfip1+/− mice; acute diazepam i.p., genotype difference not statistically significant
  preference for the novel mouse (social novelty index): slightly increase
WT mice
  social preference (sociability index): slight decrease in social preference
